Measurements reported in patent US20090239858A1, “THERAPEUTIC AMIDES” (ALLERGAN, INC., priority 2008, published 2009).

Tested on: lashes and adjacent hairs of patients
Assay: Eyelash and hair growth observed in glaucoma patients treated in one eye
Type: in vivo, human
Conditions: glaucoma patients treated in only one eye
Text: In the course of treating patients having glaucoma, treatment may only be appropriate in one eye. […] The lash appearance on the lids of the treated eyes would have appeared quite attractive if it represented a bilateral phenomenon. As a result of its asymmetric nature, the long lashes on one side could be construed as disturbing from a cosmetic standpoint. A systemic examination was preformed as a result of the asymmetric phenomenon. It soon became apparent that this altered appearance was not an isolated finding. […] Definite differences could be identified to varying degrees in the lashes and adjacent hairs of all patients who were taking the drug on a unilateral basis for longer than 6 months.
The changes in the lashes were apparent on gross inspection in several patients once attention was focused on the issue. In those with light colored hair and lashes, the differences were only seen easily with the aid of the high magnification and lighting capabilities of the slit lamp biomicroscope. In the course of glaucoma follow-up examination, attention is generally immediately focused on the eye itself. As a result of the high power magnification needed only one eye is seen at a time and the eye is seen at a high enough power that the lashes are not in focus. […]

Structure (SMILES): CCNC(=O)CCC/C=C\C[C@@H]1[C@@H](/C=C/[C@@H](O)CCc2ccccc2)[C@H](O)C[C@@H]1O [bimatoprost]
- lash appearance in treated eye versus non-treated eye: longer, thicker, and fuller
